Experimental data: patent US4459290A, “C-23-Modified derivatives of OMT, pharmaceutical compositions and method of use” (priority 1982, dated 1984)
≈ marks a conversion by molar mass, not a printed value. Read-outs that look alike come from different tables or passages of the source.

How the values were obtained:
Proteus rettgeri PR7 = assay: MIC, standard agar-dilution assay (Table VI); assay type: cell-based; conditions: Providencia rettgeri; P. rettgeri PR7; agar dilution; read-out: MIC
Experimental: (§1) Especially noteworthy is the improved activity against gram-negative bacteria for several derivatives when compared to the activity of OMT. […] The MIC's in Tables V and VI were determined by standard agar-dilution assays. The MIC's in Table VII were obtained using a conventional broth-dilution microtiter test.

Proteus inconstans PR33 = assay: MIC, standard agar-dilution assay (Table VI); assay type: cell-based; conditions: Providencia alcalifaciens; P. inconstans PR33; agar dilution; read-out: MIC
Experimental: as §1

Enterobacter cloacae EB5 = assay: MIC, standard agar-dilution assay (Table VI); assay type: cell-based; conditions: E. cloacae EB5, agar dilution, read-out: MIC
Experimental: as §1

Proteus morganii PR15 = assay: MIC, standard agar-dilution assay (Table VI); assay type: cell-based; conditions: Morganella morganii; P. morganii PR15; agar dilution; read-out: MIC
Experimental: as §1

[1] = tested on: Pasteurella hemolytica 41D; assay: MIC, broth-dilution microtiter test (Table VII); assay type: cell-based; conditions: Pasteurella, P. hemolytica 41D, read-out: MIC
How it was run: (§2)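 Broth microdilution, run as a conventional microtiter test, supplied MICs for the gram-positive S. aureus and the Pasteurella isolates. Enterobacter data instead rest on a standard agar-dilution procedure.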

[2] = tested on: Pasteurella hemolytica 22C; assay: MIC, broth-dilution microtiter test (Table VII); assay type: cell-based; conditions: Pasteurella, P. hemolytica 22C, read-out: MIC
How it was run: as §2

Mycoplasma hyorhinis = assay: MIC, broth-dilution microtiter test (Table VII); assay type: cell-based; conditions: M. hyorhinis; broth-dilution microtiter; read-out: MIC
Experimental: as §1

Streptococcus sp. 80 = assay: MIC, broth-dilution microtiter test (Table VII); assay type: cell-based; conditions: Streptococcus sp. 80; broth-dilution microtiter; read-out: MIC
Experimental: as §1

Mycoplasma synoviae = assay: MIC, broth-dilution microtiter test (Table VII); assay type: cell-based; conditions: Mycoplasmopsis synoviae; M. synoviae; broth-dilution microtiter; read-out: MIC
Experimental: as §1

Staphylococcus aureus = assay: MIC, broth-dilution microtiter test (Table VII); assay type: cell-based; conditions: Staphylococcus aureus; S. aureus; broth-dilution microtiter; read-out: MIC
How it was run: as §2

[3] = tested on: Pasteurella multocida 22A; assay: MIC, broth-dilution microtiter test (Table VII); assay type: cell-based; conditions: Pasteurella multocida; P. multocida 22A; broth-dilution microtiter; read-out: MIC
How it was run: as §2

[4] = tested on: Pasteurella hemolytica 23C; assay: MIC, broth-dilution microtiter test (Table VII); assay type: cell-based; conditions: Pasteurella, P. hemolytica 23C, read-out: MIC
How it was run: as §2

[5] = tested on: Pasteurella multocida 40G; assay: MIC, broth-dilution microtiter test (Table VII); assay type: cell-based; conditions: Pasteurella multocida; P. multocida 40G; broth-dilution microtiter; read-out: MIC
How it was run: as §2

[6] = tested on: Pasteurella multocida 68C; assay: MIC, broth-dilution microtiter test (Table VII); assay type: cell-based; conditions: Pasteurella multocida; P. multocida 68C; broth-dilution microtiter; read-out: MIC
How it was run: as §2

[7] = tested on: Pasteurella multocida 17E; assay: MIC, broth-dilution microtiter test (Table VII); assay type: cell-based; conditions: Pasteurella multocida; P. multocida 17E, bovine isolate; broth-dilution microtiter; read-out: MIC
How it was run: as §2

Mycoplasma gallisepticum = assay: MIC, broth-dilution microtiter test (Table VII); assay type: cell-based; conditions: Mycoplasmoides gallisepticum; M. gallisepticum; broth-dilution microtiter; read-out: MIC
Experimental: as §1

[8] = tested on: Pasteurella multocida 60A; assay: MIC, broth-dilution microtiter test (Table VII); assay type: cell-based; conditions: Pasteurella multocida; P. multocida 60A, avian isolate; broth-dilution microtiter; read-out: MIC
How it was run: as §2

[9] = tested on: Streptococcus pyogenes C203; assay: ED50 in mice experimentally infected with S. pyogenes C203 (Table VIII); assay type: in vivo
Experimental: The C-23 modified derivatives of OMT of this invention have shown in vivo antimicrobial activity against experimental infections. When two doses of test compound were administered to mice experimentally infected with a gram-positive bacterium, S. pyogenes C203, the activity observed was measured as an ED50 value [effective dose in mg/kg to protect 50% of the test animals: see Warren Wick, et al., J. Bacteriol. 81, 233-235 (1961)].

[10] = tested on: Klebsiella pneumoniae X26; assay: MIC, standard agar-dilution assay (Table V); assay type: cell-based; conditions: Klebsiella pneumoniae; K. pneumoniae X26; agar dilution; read-out: MIC
Experimental: as §1

[11] = tested on: Staphylococcus aureus X1.1; assay: MIC, standard agar-dilution assay (Table V); assay type: cell-based; conditions: Staphylococcus aureus; S. aureus X1.1; agar dilution; read-out: MIC
Experimental: as §1

[12] = tested on: Staphylococcus epidermidis EPI1; assay: MIC, standard agar-dilution assay (Table V); assay type: cell-based; conditions: Staphylococcus epidermidis; S. epidermidis EPI1; agar dilution; read-out: MIC
Experimental: as §1

[13] = tested on: Staphylococcus aureus V41; assay: MIC, standard agar-dilution assay (Table V); assay type: cell-based; conditions: Staphylococcus aureus, V41
Experimental: as §1

[14] = tested on: Staphylococcus aureus X400; assay: MIC, standard agar-dilution assay (Table V); assay type: cell-based; conditions: Staphylococcus aureus, X400
Experimental: as §1

[15] = tested on: Klebsiella pneumoniae KAE; assay: MIC, standard agar-dilution assay (Table V); assay type: cell-based; conditions: Klebsiella pneumoniae
How it was run: (§3)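 Growth inhibition in liquid medium, in a routine microtiter broth-dilution series, gave the MIC against staphylococci and pasteurellae; the gram-negative enteric strain was tested by conventional agar dilution instead.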

Escherichia coli N10 = assay: MIC, standard agar-dilution assay (Table V); assay type: cell-based; conditions: Escherichia coli; E. coli N10; agar dilution; read-out: MIC
How it was run: as §3

[16] = tested on: Staphylococcus aureus S13E; assay: MIC, standard agar-dilution assay (Table V); assay type: cell-based; conditions: Staphylococcus aureus, S13E
Experimental: as §1

[17] = tested on: Streptococcus Group D X66; assay: MIC, standard agar-dilution assay (Table V); assay type: cell-based
Experimental: as §1

[18] = tested on: Staphylococcus epidermidis EPI2; assay: MIC, standard agar-dilution assay (Table V); assay type: cell-based; conditions: Staphylococcus epidermidis; S. epidermidis EPI2; agar dilution; read-out: MIC
Experimental: as §1

Streptococcus Group 9960 = assay: MIC, standard agar-dilution assay (Table V); assay type: cell-based; conditions: GROUP9960
Experimental: as §1

Shigella sonnei N9 = assay: MIC, standard agar-dilution assay (Table V); assay type: cell-based
How it was run: as §3

Escherichia coli EC14 = assay: MIC, standard agar-dilution assay (Table V); assay type: cell-based; conditions: Escherichia coli; E. coli EC14; agar dilution; read-out: MIC
How it was run: as §3

[19] = tested on: Streptococcus pneumoniae Park I; assay: microbe, parasite or virus in culture; assay type: cell-based; conditions: Streptococcus pneumoniae; S. pneumoniae Park I; agar dilution; read-out: MIC
Experimental: as §1

[20] = tested on: Haemophilus influenzae Holt; assay: MIC, standard agar-dilution assay (Table V); assay type: cell-based; conditions: Haemophilus influenzae; H. influenzae Holt, ampicillin-sensitive strain; agar dilution; read-out: MIC
Experimental: (§4) The MIC's in Tables V and VI were determined by standard agar-dilution assays. The MIC's in Table VII were obtained using a conventional broth-dilution microtiter test.

[21] = tested on: Haemophilus influenzae R252; assay: MIC, standard agar-dilution assay (Table V); assay type: cell-based; conditions: Haemophilus influenzae, R252
Experimental: as §4

[22] = tested on: Streptococcus pyogenes C203; assay: MIC, standard agar-dilution assay (Table V); assay type: cell-based; conditions: Streptococcus pyogenes; S. pyogenes C203; agar dilution; read-out: MIC
Experimental: as §4

Work on `CCC1OC(=O)CC(O)C(C)C(OC2OC(C)C(O)C(N(C)C)C2O)C(CC=O)CC(C)C(=O)C=CC(C)=CC1CF` (stereo not drawn) [Compound 15, 23-Deoxy-23-fluoro-OMT] yielded an MIC (Proteus rettgeri PR7) of 32 µg/mL (≈ 53.4 µM), an MIC (Proteus inconstans PR33) greater than 128 µg/mL and an MIC (Enterobacter cloacae EB5) greater than 128 µg/mL. It also gave an MIC (Proteus morganii PR15) of 64 µg/mL (≈ 107 µM), an MIC [1] of 3.12 µg/mL (≈ 5.2 µM) and an MIC [2] of 3.12 µg/mL (≈ 5.2 µM). For the same compound, the MIC (Mycoplasma hyorhinis) was 0.78 µg/mL (≈ 1.3 µM), the MIC (Streptococcus sp. 80) was no more than 0.78 µg/mL and the MIC (Mycoplasma synoviae) was 0.39 µg/mL (≈ 0.65 µM). For the same compound, the MIC (Staphylococcus aureus) was 1.56 µg/mL (≈ 2.6 µM), the MIC [3] was 3.12 µg/mL (≈ 5.2 µM) and the MIC [4] was 6.25 µg/mL (≈ 10.4 µM). The MIC [5] was 1.56 µg/mL (≈ 2.6 µM), the MIC [6] was 3.12 µg/mL (≈ 5.2 µM) and the MIC [7] was 3.12 µg/mL (≈ 5.2 µM). The MIC (Mycoplasma gallisepticum) was 0.09 µg/mL (≈ 0.15 µM), the MIC [8] was 3.12 µg/mL (≈ 5.2 µM) and the ED50 ([9]; C203, po, read-out: ED50, Oral) was greater than 100 mg/kg. The ED50 ([9]; C203, sc, mice, subcutaneous, doses given 1 and 4 hours postinfection, read-out: ED50, Subcutaneous) was 4.6 mg/kg, the MIC [10] was 2 µg/mL (≈ 3.33 µM) and the MIC [11] was 0.25 µg/mL (≈ 0.417 µM). It also gave an MIC [12] of 0.25 µg/mL (≈ 0.417 µM), an MIC [13] of 0.5 µg/mL (≈ 0.834 µM) and an MIC [14] of 0.5 µg/mL (≈ 0.834 µM). The MIC [15] was 64 µg/mL (≈ 107 µM), the MIC (Escherichia coli N10) was 32 µg/mL (≈ 53.4 µM) and the MIC [16] was 0.5 µg/mL (≈ 0.834 µM). For the same compound, the MIC [17] was 0.5 µg/mL (≈ 0.834 µM), the MIC [18] was 0.5 µg/mL (≈ 0.834 µM) and the MIC (Streptococcus Group 9960) was 0.5 µg/mL (≈ 0.834 µM). The MIC (Shigella sonnei N9) was 32 µg/mL (≈ 53.4 µM), the MIC (Escherichia coli EC14) was 32 µg/mL (≈ 53.4 µM) and the MIC [19] was 0.125 µg/mL (≈ 0.208 µM). For the same compound, the MIC [20] was 1 µg/mL (≈ 1.67 µM), the MIC [21] was 0.5 µg/mL (≈ 0.834 µM) and the MIC [22] was 0.125 µg/mL (≈ 0.208 µM).
